Test system: B16F10 cells
Assay: Colony survival assay, B16F10 cells
Format: cell-based, mouse
Description: (14B) Colony survival assay of H1975 cell line. (14C) Colony survival assay of A549 cell line. (14D) Colony survival assay of B16F10 cell line. All cell lines were treated with 50 μM c #3 and the indicated concentration of cisplatin for 48 h, then growth media was replaced with normal growth media with no compound. Cells were allowed to recover 4-5 days before staining. For all cell lines, colony survival assay n=3 independent experiments, SD=1. P value was calculated by two-way ANOVA multiple comparison. IC50 was calculated using linear regression for H1975 and A549, and sigmoidal regression for B16F10.
Colony survival assay to compare the relative survival rate of cells treated with cisplatin alone, or with combined treatment of cisplatin and 50 μM of compound 3 (see FIG. 1). Molecule presented preliminary promising results, We tested compound 3 (c #3) on different cancer cell lines: two lung cancer cell lines, (1) human non-small cell lung carcinoma H1975 cells, (2) epithelial lung adenocarcinoma A549 cells, and (3) mouse aggressive melanoma B16F10 cells.

## Cc1oc(-c2ccco2)nc1CC(=O)N[C@@H](C(=O)O)c1ccccc1 [Compound 3]
B16F10, 50 μM compound alone
  toxicity, compound alone: caused no toxicity
B16F10, cisplatin + 50 μM c #3, 48 h
  sensitization to cisplatin: sensitization to cisplatin treatment
